Broadly, the IC50 is the concentration at which inhibition is half-maximal.

These results are taken from paper PMC9501014, “Amaryllidaceae-Type Alkaloids from Pancratium maritimum: Apoptosis-Inducing Effect and Cell Cycle Arrest on Triple-Negative Breast Cancer Cells” (Molecules, 2022).

Assay [1] relates to MCF12A cells. The assay can be described thus: Sulforhodamine B antiproliferative assay, non-tumorigenic breast MCF12A. Type of assay: cell-based. Particulars: Homo sapiens, MCF-12A, 48 h of treatment, read-out: IC50 MCF12A (D). As to the method: (§1) The antiproliferative effect of the isolated compounds (1–11) was investigated by the sulforhodamine B assay against human triple-negative breast cancer cell lines (MDA-MB-468 and MDA-MB-231) and breast ductal carcinoma cells (MCF-7) and the non-tumorigenic fibroblast (HFF-1) and breast cell lines (MCF12A). The IC50 values were determined after 48 h of treatment (Table 1).
(§2) Human breast adenocarcinoma MDA-MB-231, MDA-MB-468, and MCF-7 cell lines and non-tumorigenic foreskin fibroblast (HFF-1) and breast (MCF12A) cell lines were purchased from American Type Culture Collection (ATCC, Rockville, MD, USA). All cancer cell lines, except MCF12A, were routinely cultured in RPMI-1640 medium with glutamine from Corning (VWR, Carnaxide, Portugal) supplemented with 10% fetal bovine serum (FBS) from Biowest (Labclinics, Barcelona, Spain). MCF12A cells were cultured in a 1:1 mixture of Dulbecco’s modified Eagle’s medium and Ham’s F12 medium, 20 ng/mL human epidermal growth factor, 100 ng/mL cholera toxin, 0.01 mg/mL bovine insulin, and 500 ng/mL hydrocortisone and supplemented with 10% FBS. All cells were maintained in a humidified incubator at 37 °C with 5% CO2. All cells were routinely tested for mycoplasma contamination using the MycoAlertTM PLUS detection kit (Lonza, Basel, Switzerland).
(§3) Human cell lines were seeded in 96-well plates at a density of 5.0 × 10^3 (MDA-MB-231, MCF-7, HFF-1, and MCF12A) and 7.5 × 10^3 (MDA-MB-468) cells/well and allowed to adhere for 24 h. Cells were treated with serial dilutions of compounds (ranging from 0.1 to 40 μM) for an additional 48 h. Effect on cell proliferation was measured by sulforhodamine B assay, as described in [33], and the half-maximal inhibitory concentration (IC50) was then determined for each cell line using the GraphPad Prism software version 7.0 (La Jolla, CA, USA).
A general note: In SRB staining, fixed cells bind dye roughly in proportion to their protein.

Assay [2] relates to MDA-MB-231 cells. The assay can be described thus: Annexin V-FITC apoptosis assay. Type of assay: cell-based, human. To be noted: 16 µM, 48 h, vs vehicle control. As for the experimental part:
Figure 2 Compound 7 induced cell cycle arrest, apoptosis, and ROS production, in MDA-MB-231 cells. […] (B) Effect of 16 µM of compound 7 on cell cycle progression after 48 h of treatment in MDA-MB-231 cells; the percentage of cells in each phase of the cell cycle was analyzed by flow cytometry, using PI; data are mean ± SEM of three independent experiments. […] (C) Effect of 16 µM of compound 7 on apoptosis after 48 h of treatment; the percentage of Annexin-positive cells was analyzed by flow cytometry using PI and Annexin-V staining; data are mean ± SEM of three independent experiments. […] (D) Effect of 16 µM of compound 7 on mitochondrial ROS generation after 24 h of treatment; data are mean ± SEM of three independent experiments (* p < 0.05, unpaired Student’s t-test). […] (F) The graph represents the quantification of protein expression levels relative to DMSO; data are mean ± SD of three independent experiments. The ability of compound 7 to induce apoptosis in this cell line was also assessed by cytometry, using the Annexin V-FITC assay after 48 h of treatment. […]
The analyses were performed basically as described in [33]. […] The cells were then analyzed by flow cytometry, and cell cycle phases were identified and quantified using the FlowJo × 10.0.7 Software (Treestar, Ashland, OR, USA). […]

The test system of assay [3] is MDA-MB-231 cells. The assay can be described thus: Mitochondrial ROS generation (MitoSOX). To be noted: 16 µM, 24 h. Type of assay: cell-based, human. As to the method:
Figure 2 Compound 7 induced cell cycle arrest, apoptosis, and ROS production, in MDA-MB-231 cells. […] (B) Effect of 16 µM of compound 7 on cell cycle progression after 48 h of treatment in MDA-MB-231 cells; the percentage of cells in each phase of the cell cycle was analyzed by flow cytometry, using PI; data are mean ± SEM of three independent experiments. […] (C) Effect of 16 µM of compound 7 on apoptosis after 48 h of treatment; the percentage of Annexin-positive cells was analyzed by flow cytometry using PI and Annexin-V staining; data are mean ± SEM of three independent experiments. […] (F) The graph represents the quantification of protein expression levels relative to DMSO; data are mean ± SD of three independent experiments. The ability of compound 7 to induce apoptosis in this cell line was also assessed by cytometry, using the Annexin V-FITC assay after 48 h of treatment. […]
For mitochondrial ROS generation assessment, MDA-MB-231 cells were seeded in 6-well plates at a density of 1.5 × 10^5 cells/well for 24 h, followed by treatment with 16 µM of compound 7 for an additional 24 h. Thereafter, cells were incubated with 3 μM MitoSOX (Thermo Fisher Scientific, Invitrogen, Portugal) for 30 min at 37 °C and analyzed by flow cytometry.

In assay [4] the test system is MDA-MB-468 cells. The assay can be described thus: Sulforhodamine B antiproliferative assay, MDA-MB-468. The class given is cell-based, human. As to the method: as §1, §2, §3
Assay [5] relates to breast cancer cell lines (MDA-MB-231, MDA-MB-468, MCF-7). The assay is described as follows: Sulforhodamine B assay, all breast cancer cell lines. Particulars: Homo sapiens; range over the four alkaloids and MDA-MB-231, MDA-MB-468, MCF-7; read-out: IC50 values against all breast cancer cell lines. The class given is cell-based. As to the method:
Aiming to find Amaryllidaceae alkaloids against breast cancer, including the highly aggressive triple-negative breast cancer, the phytochemical study of Pancratium maritimum was carried out. Several Amaryllidaceae-type alkaloids, bearing scaffolds of the haemanthamine-, homolycorine-, lycorine-, galanthamine-, and tazettine-type were isolated (3–11), along with one alkamide (2) and a phenolic compound (1). The antiproliferative effect of compounds (1–11) was evaluated by the sulforhodamine B assay against triple-negative breast cancer cell lines MDA-MB-231 and MDA-MB-468, breast cancer cells MCF-7, and the non-malignant fibroblast (HFF-1) and breast (MCF12A) cell lines. […] The homolycorine-type alkaloid 7 was selected for further investigation in MDA-MB-231 cells. In the annexin-V assay, compound 7 increased cell death by apoptosis, which was substantiated, in western blot analyses, by the increased expression of the pro-apoptotic protein Bax, and the decreased expression of the anti-apoptotic protein Bcl-xL. Consistently, it further stimulated mitochondrial reactive oxygen species (ROS) generation. The antiproliferative effect of compound 7 was also associated with G2/M cell cycle arrest, which was supported by an increase in the p21 protein expression levels.
as §3

Assay [6] has as its system MDA-MB-231 cells. The assay is described as follows: Sulforhodamine B antiproliferative assay, MDA-MB-231. The class given is cell-based, human. Particulars: for IC50: sulforhodamine B assay, 48 h of treatment, read-out: IC50 MDA-MDB-231 (A). As for the experimental part: as §1, §2, §3

Read-outs that look alike come from different tables or passages of the source.

`COc1cc2c(cc1O)C(=O)OC1[C@@H](O)C=C3CCN(C)C3[C@]21O` (stereo partly drawn) [Compound 7, 2α-10bα-dihydroxy-9-O-demethylhomolycorine]: the IC50 is 5.6 ± 0.8 µM in assay [1]; 16.3 ± 1.3 µM in assay [4] (Homo sapiens, MDA-MB-468, 48 h, sulforhodamine B assay, 48 h of treatment); 0.73 to 16.3 µM in assay [5]; 8.02 µM in assay [6] (Homo sapiens, MDA-MB-231, 48 h); 8 ± 1.68 µM in assay [6]. Also, the “percentage of apoptotic (Annexin-positive) cells” value in assay [2] was “significant increase in the percentage of apoptotic cells”. In assay [3], the “mitochondrial ROS production” value is on record as “increased ROS production”. The “SI E/B” value in assay [4] (selectivity index, HFF-1 vs MDA-MB-468) was 0.81. Moreover, the “SI D/B” value in assay [4] (selectivity index, MCF12A vs MDA-MB-468) came to 0.34. In addition, in assay [6] (1.5 µM), the “effect of compound alone on cancer cell growth” value is “no significant effect on cancer cell growth”. Besides, the “SI E/A” value in assay [6] (selectivity index, HFF-1 vs MDA-MB-231) stood at 1.65. In addition, the “SI D/A” value in assay [6] (selectivity index, MCF12A vs MDA-MB-231) turned out to be 0.69.
